According to the supplement of paper PMC4862054:

Columns and labels:
Conditions in all cases: incubation time: 72 h
BT-474 [1] = experiment: normalised response (% of control), CellTox Green; higher = less cell death (100 = DMSO, 0 = benzethonium chloride kill control)
In short: (§1)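 Breast cancer cell lines (20 µl suspension) were seeded into 384-well plates holding compound at 5 concentrations in 10-fold steps over a compound-specific 10,000-fold range, then incubated 72 h. CellTox Green fluorescence (485/520 nm) was read first, then CellTiter-Glo luminescence after 10 min at room temperature. Each plate was normalised to 0.1 % DMSO (100) and a positive kill control (0). Each value is the normalised signal at a single concentration of the series.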

BT-549 [2] = experiment: as above
In short: as §1

CAL-120 [3] = experiment: as above
In short: as §1

CAL-148 [4] = experiment: as above
In short: as §1

CAL-51 [5] = experiment: as above
In short: as §1

CAL-85-1 [6] = experiment: as above
In short: as §1

DU-4475 [7] = experiment: as above
In short: as §1

HCC1143 [8] = experiment: as above
In short: as §1

HCC1599 [9] = experiment: as above
In short: as §1

HCC1937 [10] = experiment: as above
In short: as §1

HDQ-P1 [11] = experiment: as above
In short: as §1

Hs578T [12] = experiment: as above
In short: as §1

MCF-10A [13] = experiment: as above
In short: as §1

MDA-MB-231 [14] = experiment: as above
In short: as §1

MDA-MB-436 [15] = experiment: as above
In short: as §1

MDA-MB-453 [16] = experiment: as above
In short: as §1

MDA-MB-468 [17] = experiment: as above
In short: as §1

MFM-223 [18] = experiment: as above
In short: as §1

BT-474 [19] = experiment: normalised response (% of control), CellTiter-Glo; higher = more viable cells (100 = DMSO, 0 = benzethonium chloride kill control)
Procedure: (§2)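 DSRT, 72 h incubation, CellTox Green / CellTiter-Glo readout. Signal is normalised to DMSO and benzethonium chloride controls. Value is the normalised response at dose 3.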

BT-549 [20] = experiment: as above
Procedure: as §2

CAL-120 [21] = experiment: as above
Procedure: as §2

CAL-148 [22] = experiment: as above
Procedure: as §2

CAL-51 [23] = experiment: as above
Procedure: as §2

CAL-85-1 [24] = experiment: as above
Procedure: as §2

DU-4475 [25] = experiment: as above
Procedure: as §2

HCC1143 [26] = experiment: as above
Procedure: as §2

HCC1599 [27] = experiment: as above
Procedure: as §2

HCC1937 [28] = experiment: as above
Procedure: as §2

HDQ-P1 [29] = experiment: as above
Procedure: as §2

Hs578T [30] = experiment: as above
Procedure: as §2

MCF-10A [31] = experiment: as above
Procedure: as §2

MDA-MB-231 [32] = experiment: as above
Procedure: as §2

MDA-MB-436 [33] = experiment: as above
Procedure: as §2

MDA-MB-453 [34] = experiment: as above
Procedure: as §2

MDA-MB-468 [35] = experiment: as above
Procedure: as §2

MFM-223 [36] = experiment: as above
Procedure: as §2

SK-BR-3 = experiment: as above
Procedure: as §2

Structure (SMILES) | normalised response (BT-474 [1]) | normalised response (BT-549 [2]) | normalised response (CAL-120 [3]) | normalised response (CAL-148 [4]) | normalised response (CAL-51 [5]) | normalised response (CAL-85-1 [6]) | normalised response (DU-4475 [7]) | normalised response (HCC1143 [8]) | normalised response (HCC1599 [9]) | normalised response (HCC1937 [10]) | normalised response (HDQ-P1 [11]) | normalised response (Hs578T [12]) | normalised response (MCF-10A [13]) | normalised response (MDA-MB-231 [14]) | normalised response (MDA-MB-436 [15]) | normalised response (MDA-MB-453 [16]) | normalised response (MDA-MB-468 [17]) | normalised response (MFM-223 [18]) | normalised response (BT-474 [19]) | normalised response (BT-549 [20]) | normalised response (CAL-120 [21]) | normalised response (CAL-148 [22]) | normalised response (CAL-51 [23]) | normalised response (CAL-85-1 [24]) | normalised response (DU-4475 [25]) | normalised response (HCC1143 [26]) | normalised response (HCC1599 [27]) | normalised response (HCC1937 [28]) | normalised response (HDQ-P1 [29]) | normalised response (Hs578T [30]) | normalised response (MCF-10A [31]) | normalised response (MDA-MB-231 [32]) | normalised response (MDA-MB-436 [33]) | normalised response (MDA-MB-453 [34]) | normalised response (MDA-MB-468 [35]) | normalised response (MFM-223 [36]) | normalised response (SK-BR-3)
N#Cc1ccc(COC[C@H]2O[C@@H](n3c(NCc4ccc(Cl)c(Cl)c4)nc4c(N)ncnc43)[C@H](O)[C@@H]2O)cc1 (100 nM) | 100% | 99.3% | 99.7% | 104% | 114% | 101% | 106% | 108% | 115% | 60.8% | 85.9% | 114% | 97.2% | 86.9% | 96% | 110% | 130% | 108% | 98.6% | 103% | 108% | 104% | 97.2% | 104% | 103% | 103% | 98.3% | 95.3% | 101% | 95.2% | 102% | 111% | 110% | 95.7% | 100% | 110% | 104%
COc1cc(O)c2c(c1)/C=C/C[C@H](O)[C@H](O)C(=O)/C=C\C[C@H](C)OC2=O [(5Z)-7-Oxozeaenol] (100 nM) | 104% | 91.1% | 104% | – | 109% | – | 96.9% | 89.1% | 108% | 105% | 85.9% | 79.4% | – | 109% | 104% | 102% | 107% | 105% | 95.4% | 76.2% | 101% | 101% | 103% | 88.5% | 76.1% | 99% | 91.2% | 92.4% | 84.1% | 98.9% | 84.8% | 104% | 104% | 108% | 92.9% | 103% | 108%
COc1cc(OC2CCN(C)CC2)ccc1Nc1ncc2c(n1)n(C1CCCC1)c(=O)n2C [AZ 3146] (100 nM) | 98.3% | 111% | 96.9% | 89.9% | 111% | 107% | 99.8% | 96.7% | 96.6% | 96.3% | 96.2% | 99.1% | – | 92.5% | 77.7% | 104% | – | 100% | 104% | 108% | 99.9% | 99.2% | 115% | 102% | 99.9% | 98.8% | 98.3% | 96.2% | 98.7% | 94.1% | 96.7% | 99.1% | 104% | 111% | 101% | 99.2% | 98.1%
CNC(=O)c1cccc(-c2ccc3c(N4CCOC[C@@H]4C)nc(N4CCOC[C@@H]4C)nc3n2)c1 [AZD2014] (100 nM) | 102% | 101% | 101% | 83.9% | 49.6% | 104% | 103% | 105% | 93% | – | 106% | 107% | 51.3% | 121% | 118% | 98.7% | – | 103% | 87.1% | 73.9% | 79.4% | 85.6% | 69.4% | 87.6% | 97.1% | 92.3% | 119% | 80.8% | 70.5% | 93.6% | 97.3% | 86.9% | 82% | 80.8% | 94.7% | 75.1% | 64.7%
O=C(/C=C/c1cccc(S(=O)(=O)Nc2ccccc2)c1)NO [Belinostat] (100 nM) | 96.7% | 100% | 99.2% | 101% | 83.8% | 94.8% | 99.4% | 95.4% | 104% | 89.8% | 104% | 103% | – | 76.3% | 93.2% | 100% | 131% | 84.1% | 95% | 99.3% | 87.5% | 79.8% | 63.4% | 85.6% | 86.4% | 89.1% | 92.3% | 83.9% | 83.7% | 95% | 81.3% | 85.5% | 83.6% | 62.3% | 83.6% | 85.6% | 82.7%
Cc1ccc(NC(=O)c2ccc(CN3CCN(C)CC3)cc2)cc1Nc1nc(-c2cccnc2)cs1 [Masitinib] (100 nM) | 95.3% | 91% | 98.9% | 95.1% | 104% | 99.3% | 99.3% | 105% | 101% | – | 87.1% | 106% | 68.2% | 91.5% | 73.4% | 103% | 116% | 91.6% | 101% | 107% | 97.7% | 106% | 83.5% | 101% | 105% | 102% | 93.8% | 103% | 109% | 102% | 91.6% | 111% | 107% | 106% | 99.8% | 106% | 99%
COC(=O)c1ccc2c(c1)NC(=O)/C2=C(\Nc1ccc(N(C)C(=O)CN2CCN(C)CC2)cc1)c1ccccc1 [Nintedanib] (100 nM) | 102% | 101% | 100% | 102% | 109% | 98.1% | 103% | 106% | 95.1% | 108% | 83.3% | – | 102% | 92.7% | 93% | 101% | 82.3% | 98.9% | 96.8% | 108% | 98.7% | 106% | 103% | 98.7% | 100% | 101% | 114% | 94.9% | 95% | 103% | 93.4% | 105% | 102% | 109% | 92.2% | 95.8% | 98.3%
S=P(N1CC1)(N1CC1)N1CC1 [Thio-TEPA] (500 nM) | 94.3% | 108% | 97% | 102% | 113% | 107% | 101% | 101% | 97.2% | – | 92.6% | 88.8% | – | 105% | 85.2% | 102% | 69% | 100% | 95% | 102% | 96.1% | 95.6% | 108% | 103% | 104% | 97.5% | 89% | 95.4% | 102% | 101% | 106% | 98.8% | 94.8% | 116% | 101% | 98.7% | 110%
CN(C)CCOc1ccc(/C(=C(/CCCl)c2ccccc2)c2ccccc2)cc1 [Toremifene] (100 nM) | 101% | 92.8% | 102% | 84.1% | 110% | 98.3% | 102% | 70.6% | 99.1% | – | 74.3% | 99.7% | 71.6% | 55.6% | – | 106% | 127% | 92.6% | 102% | 101% | 105% | 109% | 100% | 94.6% | 104% | 103% | 102% | 99.7% | 98.2% | 104% | 103% | 105% | 100% | 107% | 99.1% | 103% | 102%
